How the values were obtained:
Sprague-Dawley rats = test: Effects of Pet-120 on the endothelial dysfunction of angiotensin II induced hypertension in rats; type: in vivo, rat; settings: Pet-120 with Ang II for 14 days; aortic rings, acetylcholine curves
Protocol: Male Sprague-Dawley rats were housed in separate cages and maintained in a temperature regulated room on a 12-hour light/dark cycle. Throughout the experiments, animals had free access to water and standard rat chow. Rats weighing 270 to 310 grams at the beginning of the experiments were anesthetized with ketamine and xylazine (50 and 10 mg/kg, respectively), and an osmotic miniature pump (model 2002; Alza Co) was implanted subcutaneously at the dorsum of the neck. Rats were selected at random and divided into three groups. The first group used as control and received the vehicle alone. The second group received angiotensin II (Ang II, Sigma Chemical Co) infusion (n=3) at a rate of 80 ng/minute or vehicle (n=2; for a period of 14 days. The third group (n=3) received both Ang II (as the second group) and Pet-120 at rate 167 ng/minute for 14 days. At the end of the treatment, rats were anesthetized with ketamine and xylazine (50 and 10 mg/kg, respectively), and both the osmotic pumps and the catheters were removed, and the animals were allowed to recover for 24 hours before initiation of the experiment.
Thereafter a section of the thoracic aorta (with endothelium) was removed from the rats, dissected free of fat and connective tissue in oxygenated Krebs-Hanseliet solution (pH 7.4). […]

[1] = test system: cyclic-GMP in isolated aorta of rats; test: Induction of in vivo nitrate tolerance (cGMP in isolated aorta of rats pre-treated in vivo); parameters: species or system rat; settings: rats pre-treated in vivo with the same compound
Protocol: For c-GMP levels and tolerance development, the rat's thoracic aorta was isolated after exposure to the tested compound in vivo, and measured as described above in the in vitro assays.
Male Sprague Dawley rats (220 to 250 grams) were housed under constant temperature and humidity conditions. Light was maintained at a 12/12 light dark cycle. Except for 12 hours before the experiment, when food fasting was initiated, all rats had free access to standard rat pellet diet and tap water. The animals were anesthetized by intraperitoneal injection of ketamine and xylazine combination (50 and 10 milligram per kilogram, respectively). […] The catheters were filled with normal saline solution containing 1000 IU/ml of heparin and plugged with a metal pin. Catheters were externalized to the back of the neck region and secured by a polyester felt disk.
After implantation, the rats were individually housed until they regained their preoperative weight and appeared healthy (3 to 4 days post-operation). At this time point (day 0), an osmotic mini-pump (Alza Corp., Palo Alto, Calif.) delivering constant volume (10 μl/hour) of vehicle or drug was connected to one of the intravenous catheters.
For inducing tolerance to the tested NO-donor according to the present invention, the animals received 200 μg/hour of the tested compound for 16 hours (short-term-induced tolerance). A similar number of animals were processed by the same surgical procedure and received the vehicle alone (10 μl/hour of a solution consisting of 30% ethanol and 30% propylene glycol in sterile distilled water for injection).
At the end of the infusion periods used for the development of tolerance (16 hour), the rats were anesthetized as described above, the two catheters were externalized and the delivering catheters were disconnected from the mini-pump. The abdomen was opened by midline incision and the thoracic aorta were isolated, washed and cleaned from the surrounding tissues. […]

isolated rat aorta = test: Cross-tolerance studies on aortic rings (GTN / Pet-12 pre-treatment); type: cell-based; settings: aorta pre-treated with GTN
Protocol: Cross-tolerance studies were conducted using the same technique described above for measuring vasorelaxation of aortic rings from rats. Two groups of aortic rings samples were pre-treated with GTN, then one group was measured for vasorelaxation by GTN and the second group for vasorelaxation by Pet-12, an exemplary NO-donor according to the present invention. For the opposite cross-tolerance studies, two groups of aortic rings samples were pre-treated with Pet-12, then one group was measured for vasorelaxation by GTN and the second group for vasorelaxation by Pet-12.

## Cc1nc(-c2ccc([N+](=O)[O-])cc2)sc1CCO[N+](=O)[O-] [Pet-120, 4-Methyl-5-(2-nitrooxy-ethyl)-2-(4-nitro-phenyl)-thiazole]
Sprague-Dawley rats
  vasorelaxation after Ang II induced hypertension: notable capacity to induce vasorelaxation
[1]
  tolerance induction by cyclic-GMP accumulation in aorta of rats pre-treated in vivo: absence of tolerance induction
Isolated rat aorta
  vasorelaxation in rings made tolerant to GTN (cross-tolerance): can even induce vasorelaxation in rat aorta of rats after tolerance has been induced therein by chronic use of GTN

Source: patent US8134010B2, “Thiazole-based nitric oxide donors having aryl substituent(s) and uses thereof” (priority 2004, dated 2012)
